Where a name gives a salt, the structure may show the parent alone.
Assays:
Type in all cases: physicochemical
[1] = Steady-state fluorescence anisotropy in solvents and liposomes; settings: for steady-state anisotropy (a), DMPC: DMPC liposomes
Protocol: (§1) Steady-state fluorescence measurements were obtained on a SLM Model 4800C. spectrofluorometer with a thermostated cuvette compartment. This instrument was interfaced with an IBM PS/2 model 55 SX computer. Excitation and emission spectra were recorded with an excitation resolution of 8 nm and an emission resolution of 4 nm. In all cases spectra were corrected for background fluorescence and scatter from unlabeled lipids or from solvents by subtraction of the spectrum of a blank. Steady-state fluorescence intensity measurements were made in the absence of polarizer. Steady-state anisotropy (a) measurements were determined with the instrument in the "T-format" for simultaneous measurement of two polarized intensities. The alignment of polarizers were checked routinely using a dilute suspension of 0.25 μm polystyrene microspheres from Polysciences, Inc, Warrington, Pa., in water; anisotropy values of >0.99 were obtained. The anisotropy was calculated from a=(Ivv -GlVH)/(Ivv +GIVH), where G-IVH /IHH and the subscripts refer to vertical and horizontal orientations of the excitation and emission polarizers, respectively.
(§2) Anisotropy measurements for camptothecin, camptothecin carboxylate sodium salt, and 10,11-methylenedioxycamptothecin were conducted using exciting light of 370 nm and 420 nm long wave pass filters on each emission channel in order to isolate the fluorescence signal from background scatter and signal. For topotecan a 400 nm excitation wavelength and a 500 nm emission filter were used and for 9-aminocamptothecin a 375 nm excitation and a wavelength 420 nm emission filter were used. For AMC and CMC, a 370 nm excitation wavelength and a 400 nm emission filter were used. For 10-hydroxycamptothecin 375 nm excitation wavelength 500 nm emission filter was used. Emission filters were obtained from Oriel Corp. Stamford, Conn. The combination of exciting light and emission filters allows one to adequately separate the fluorescence from the background signal. The contribution of background fluorescence, together with scattered light, was typically less than 1% of the total intensity. Since the lactone ring of the camptothecin drug undergoes hydrolysis in aqueous medium, all measurements were completed within the shortest possible time, less than 1 minute after mixing the drug stock solution with PBS or the liposomes. In each case, analysis was initiated immediately after mixing the drug stock solution with PBS or with the liposomes. All measurements were performed at 37° C. unless otherwise noted.
(§3) While the spectral changes provide qualitative evidence that the camptothecin drugs bind the liposome membranes, fluorescence anisotropy titration, offers the most sensitive means for quantitatively assessing the extent of the binding. The fluorescence anisotropy titration was performed according to the method of Burke and Tritton, Biochemistry 24: 1768-1776 (1985).
A steady-state fluorescence anisotropy (a) measurement is related to the rotational rate of the fluorescent molecule through the Perrin Equation: […]
where a0 is the limiting fluorescence anisotropy value, that is, the anisotropy value in the absence of depolarizing rotations, T is the excited-state lifetime, and .phi. is the rotational correlative time of the fluorophore. According to Equation 1, changes in either the T or .phi. values of a fluorescent compound can modulate its steady-state anisotropy.
The limiting fluorescence anisotropy (a0) values were also measured. The maximum values of (a) were obtained by dissolving the camptothecin drugs in the viscous solvent glycerol and cooling the samples to low temperatures. Steady-stated anisotropy (a) values were determined for samples containing 1 μM drug at 37° C.
Where the solvent viscosity is high and temperature is low, depolarizing rotations are at a minimum. By extrapolating these (a) values to -25° C., the limiting anisotropy values (a0) for the camptothecin drugs, were determined. […]

[2] = HPLC assay of lactone ring hydrolysis, free in PBS or associated with liposomes or micelles; settings: for carboxylate/lactone ratio (C/L) free drug: final equilibrium; for carboxylate/lactone ratio (C/L) free drug / t1/2 free drug: free in PBS, pH 7.4, 37° C.; for t1/2 free drug: lactone hydrolysis
Protocol: A high performance liquid chromatography assay was used to determine the rate of hydrolysis of camptothecin and topotecan free in aqueous solution and to compare such rates with the rate of hydrolysis for the same drugs when bound to the DMPG and DMPC liposome membranes. The assay was conducted under near physiological conditions; the pH was 7.4, the temperature was 37° C. and the ionic strength was physiological. A Spectroflow model 980 fluorescence detector coupled to an HP 3392A integrator which acquired and processed the chromatograms, was used. For camptothecin, an Ultrasphere ODS C-18 250 mm long column was used. The mobile phase consisted of 32% acetonitrile, 67% 0.1M acetate buffer, pH 5.5, and 1% 01.M sodium dodecylsulfate at a flow rate of 1 mL/min. The detector was set to 370 nm excitation wavelength and a 418 nm long pass emission filter. A 1 μM solution of camptothecin in PBS was prepared and incubated at 37° C. Immediately after mixing the drug stock solution with PBS and at intervals of 5 min thereafter, 50 μL aliquots were taken out and mixed with 150 μL methanolic internal standard, 9-toluoylamidocamptothecin and either analyzed immediately or kept cold under dry ice. 150 μL of this mixture was diluted with 125 μL water and 200 μL was injected. The ratio of the peak areas corresponding to the intact lactone form of the camptothecin drug and the internal standard at a particular time was normalized to that at the time of mixing and was considered as the concentration of the intact lactone form.
For topotecan the excitation wavelength was 362 nm and the emission was observed through a 470 long wave pass filter. The stationary phase was Waters Nova-Pak C-18 150mm long column. The mobile phase consisted of 500 mL 0.1M KH2 PO4, 550 mL acetonitrile, 4.2 mL triethylamine (distilled over molecular sieves), 4.44 g sodium dioctylsulfosuccinate (DOSS), and 970 ml water. The pH was adjusted to 6.0 with H3 PO4. Internal standard solution contained 50×10^-9 g acridine from Eastman and 20×10^-3 M DOSS in methanol and was always kept cold at ≤-20° C. Next 150 μL or cold internal standard solution was mixed with 50 μL aliquot containing topotecan, centrifuged for 1 minute and the supernatant was either analyzed immediately or stored at -20° C. for analysis at a later time, within 2 hours. Samples were monitored at time points from 0 minutes, that is, immediately following dissolution, up to 72 hours.
The kinetics of lactone ring hydrolysis for free camptothecin, CMC and topotecan are shown in of FIGS. 7a, 7b and 7c. Analysis of the decay profile for camptothecin, CMC and topotecan free in PBS was accomplished using a nonlinear least squares program.

[3] = Fluorescence excitation and emission spectra of camptothecin drugs free in solution and bound to liposomes
Excerpt: The camptothecin drugs are intrinsically intensely fluorescent. Fluorescence is associated with the extended conjugation of the quinoline ring system. The liposomes of Examples 1-7 were characterized for the presence of the camptothecin drugs, using excitation and emission spectrography, and fluorescence anisotropy.
as §1, §2
The relative fluorescence intensity of 1×10^-6 M of camptothecin free in PBS buffer at 37° C. is shown. The emission spectra of the camptothecin was recorded using exciting light of 370 nm.
An exciting light of 390 nm was used to record the emission spectra of topotecan. A decrease in the emission intensity is observed for topotecan associated with the DMPG liposome.
All spectra were recorded using camptothecin drug concentrations of 2
μM. The DMPC and DMPG concentrations were 0.29 M. Experiments were
conducted in PBS buffer at 37° C.
Also found in Table II is a relative index of the emission intensity levels from these camptothecin drugs in PBS at their respective excitation and emission λMAX.

[4] = Overall association constant by fluorescence anisotropy titration, DMPC liposomes
Protocol: as §3
The concentrations of free camptothecin drugs and camptothecin drugs associated with liposomes were determined at various lipid concentrations. All experiments were conducted in glass tubes pretreated with a silating agent, Surfacil, from Pearce Chemical, Rockford, Ill. The titration was conducted at camptothecin drug concentration of 1×10^-6 M in PBS at 37° C. Anisotropy values at each lipid concentration were determined within less than 30 seconds following the addition of the camptothecin drugs to the liposome suspension. The (a) values were determined for fixed drug concentration, typically 2 μM, while the lipid concentration was varied from 0 to 0.29M. By varying the lipid concentration rather than varying the drug concentration, the problem of self-association phenomenon which occurs for camptothecin drugs concentrations in excess of 10 μM is avoided. Also, the well-known phenomenon known as inner filter effect which occurs using fluorescent material at high optical densities is a is avoided.
Adsorption isotherms like those shown in FIGS. 4A and 4B were used to determine overall association constants for the camptothecin drugs. Overall association constants are defined as: […]
where [AB ] represents the concentration of the camptothecin drug bound to the vesicle membrane, [AF ] represents the concentration of free drug, and [L] represents the total lipid concentration in the liposome suspension. This equation is valid when the concentration of free lipid is approximately equal to the concentration of total lipid, that is, the concentration of free lipid is in great excess over the concentration of bound drug. Provided this concentration is satisfied, K may be determined from the inverse of the slope of a double reciprocal plot according to (Burke and Tritton, Biochemistry 24:1776, 1985). In such a plot, 1/bound fraction of the total camptothecin drug is plotted vs. 1/[lipid], with a y-intercept value of 1.
FIG. 6A is the double-reciprocal plot for the associations of CMC, camptothecin, camptothecin carboylate sodium salt and topotecan with DMPC at 37° C.
The stabilization of camptothecin drugs was determined using different lipids. Three types of lipids (and thus 3 types of membranes) were examined: fluid-phase and electroneutral L-α-dimyristoylphosphatidylcholine (DMPC); fluid-phase and negatively-charged L-α-dimyristoylphosphatidylglycerol (DMPG), and solid-phase and electroneutral L-α-distearoylphosphatidylcholine (DSPC). While DMPC and DMPG have identical chain length, the charge on their head groups differ. DMPC and DSPC have identical head groups, but DMPC has acyl chains having 14 carbons per chain, which are four carbons shorter than the DSPC, which has 18 carbons per chain. This difference of 4-carbon chain length results in DMPC being fluid-phase at 37° C. while DSPC is solid-phase. The 7 camptothecin drugs listed in Table III were combined with liposomes containing the above lipids.
FIGS. 4A and 4B show the extent of camptothecin drug binding to liposomes as a function of lipid concentration for DMPC and DMPG liposomes. DMPC liposomes were made as in Example 1, at lipid concentrations from 0 to 0.29M, using CMC, 10-hydroxycamptothecin, 10,11-methylenedioxy-camptothecin, topotecan, camptothecin, and camptothecin carboxylate sodium salt, as shown in FIG. 4B. DMPG liposomes were made as in Example 2, at lipid concentrations from 0 to 0.29M, using 9-chloro-10,11-methylenedioxycamptothecin CMC, 10,11-methylenedioxycamptothecin, camptothecin, and topotecan, 9-aminocamptothecin, as shown in FIG. 4A. […]

[5] = in PBS, pH 7.4, at excitation and emission λMAX

CCC1(O)C(=O)OCc2c1cc1n(c2=O)Cc2cc3c(N)c4c(cc3nc2-1)OCO4 (centres unmarked) [9-amino-10,11-methylenedioxycamptothecin]
steady-state anisotropy (a), DMPC ([1]; pH 2, 37° C.): 0.160
steady-state anisotropy (a), PBS ([1]; pH 3, 37° C.): 0.049
lactone hydrolysis when associated with liposomes ([2]; DMPC and DMPG liposomes): some hydrolysis occurred at 1 hour
lactone ring hydrolysis at 5 hours ([2]; DMPG or DMPC liposomes, 5 hours): ≤ 40%
carboxylate/lactone ratio (C/L) free drug [2]: 5.1
t1/2 free drug [2]: 26.9 min
emission maxima as the pH is decreased ([3]; 2 μM, excitation 370 nm, decreased pH): 430 nm
shift of emission maxima upon decrease of pH / protonation ([3]; free in PBS): about 120 nm
λMAX emission, PBS ([3]; free in PBS, pH 7.4, 37° C.): 550 nm
Relative Fluorescence [3, 5]: 0.001
λMAX excitation ([3]; pH 1.5): 373 nm
Relative Fluorescence ([3]; pH 1.5, PBS): 0.06
λMAX emission, PBS ([3]; pH 1.5, free in PBS): 430 nm
λMAX excitation ([3]; pH 7.4, 2 μM drug, PBS, 37° C.): 404 nm

CCC(O)(C(=O)O)c1cc2n(c(=O)c1CO)Cc1cc3ccccc3nc1-2 (centres unmarked) [camptothecin carboxylate, camptothecin carboxylate sodium salt]
steady-state anisotropy (a), DMPC ([1]; 37° C., 1/a vs. 1/[lipid] plot): 0.102
steady-state anisotropy (a), PBS ([1]; 1 μM drug, 37° C.): 0.008
limiting fluorescence anisotropy a0 ([1]; extrapolated to -25° C., glycerol): 0.377
steady-state anisotropy (a), glycerol ([1]; glycerol, 1 μM drug, 37° C.): 0.327
steady-state anisotropy (a), octanol ([1]; octanol, 1 μM drug, 37° C.): 0.073
λMAX emission, DMPC ([3]; DMPC liposomes 0.29 M, pH 7.4, 37° C.): 437 nm
λMAX emission, DMPG ([3]; DMPG liposomes 0.29 M, pH 7.4, 37° C.): 435 nm
λMAX emission, PBS ([3]; free in PBS, pH 7.4, 37° C.): 443 nm
Relative Fluorescence [3, 5]: 1
λMAX excitation ([3]; pH 7.4, 2 μM drug, PBS, 37° C.): 377 nm
overall association constant K, DMPC ([4]; DMPC (electroneutral, fluid phase), PBS, 37° C.): 40 M⁻¹
reduction in binding to DMPC liposomes upon hydrolysis to carboxylate ([4]; relative to camptothecin): three-fold reduction

CCC1(O)C(=O)OCc2c1cc1n(c2=O)Cc2cc3c([N+](=O)[O-])cccc3nc2-1 (centres unmarked) [9-nitrocamptothecin]
carboxylate/lactone ratio (C/L) free drug [2]: 7.5
t1/2 free drug [2]: 23.8 min
reduction in emission intensity levels relative to camptothecin ([3]; free in PBS, pH 7.4): 1000 -fold
λMAX emission, PBS ([3]; free in PBS, pH 7.4, 37° C.): 456 nm
Relative Fluorescence [3, 5]: 0.001
λMAX excitation ([3]; pH 7.4, 2 μM drug, PBS, 37° C.): 378 nm

Source: US5552156A, “Liposomal and micellular stabilization of camptothecin drugs” (Ohio State University, priority 1995, dated 1996)
